Laboratory results as given in PubChem BioAssay (NCI).
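The compound was tested at five concentrations on cells cultured in 96-well plates, with a 48-hour exposure period. The concentration for 50% growth inhibition is given as GI50. At the TGI there is no net growth.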 Peptide text beside a SMILES is read from it.

Columns and labels:
Experiment in all cases: growth of human tumour cells (NCI), 48 h
786-0 renal = tested on: 786-0 renal
A498 renal = tested on: A498 renal
A549 NSCLC = tested on: A549 NSCLC
ACHN renal = tested on: ACHN renal
CAKI-1 renal = tested on: CAKI-1 renal
CCRF-CEM leukemia = tested on: CCRF-CEM leukemia
COLO 205 colon = tested on: COLO 205 colon
DU-145 prostate = tested on: DU-145 prostate
EKVX NSCLC = tested on: EKVX NSCLC
HCC-2998 colon = tested on: HCC-2998 colon
HCT-116 colon = tested on: HCT-116 colon
HCT-15 colon = tested on: HCT-15 colon
HOP-62 NSCLC = tested on: HOP-62 NSCLC
HOP-92 NSCLC = tested on: HOP-92 NSCLC
HS 578T breast = tested on: HS 578T breast
HT29 colon = tested on: HT29 colon
IGROV1 ovarian = tested on: IGROV1 ovarian
K-562 leukemia = tested on: K-562 leukemia
KM12 colon = tested on: KM12 colon
LOX IMVI melanoma = tested on: LOX IMVI melanoma
M14 melanoma = tested on: M14 melanoma
MALME-3M melanoma = tested on: MALME-3M melanoma
MCF7 breast = tested on: MCF7 breast
MDA-MB-231 breast = tested on: MDA-MB-231 breast
MDA-MB-435 = tested on: MDA-MB-435
MOLT-4 leukemia = tested on: MOLT-4 leukemia
NCI-H226 lung = tested on: NCI-H226 lung
NCI-H23 lung = tested on: NCI-H23 lung
NCI-H460 lung = tested on: NCI-H460 lung
NCI-H522 lung = tested on: NCI-H522 lung
NCI/ADR-RES ovarian = tested on: NCI/ADR-RES ovarian
OVCAR-3 ovarian = tested on: OVCAR-3 ovarian
OVCAR-4 ovarian = tested on: OVCAR-4 ovarian
OVCAR-5 ovarian = tested on: OVCAR-5 ovarian
OVCAR-8 ovarian = tested on: OVCAR-8 ovarian
PC-3 prostate = tested on: PC-3 prostate
RPMI-8226 leukemia = tested on: RPMI-8226 leukemia
SF-268 CNS = tested on: SF-268 CNS
SF-295 CNS = tested on: SF-295 CNS
SF-539 CNS = tested on: SF-539 CNS
SK-MEL-2 melanoma = tested on: SK-MEL-2 melanoma
SK-MEL-28 melanoma = tested on: SK-MEL-28 melanoma
SK-MEL-5 melanoma = tested on: SK-MEL-5 melanoma
SK-OV-3 ovarian = tested on: SK-OV-3 ovarian
SN12C renal = tested on: SN12C renal
SNB-19 CNS = tested on: SNB-19 CNS
SNB-75 CNS = tested on: SNB-75 CNS
SW-620 colon = tested on: SW-620 colon
T-47D breast = tested on: T-47D breast
TK-10 renal = tested on: TK-10 renal
U251 CNS = tested on: U251 CNS
UACC-257 melanoma = tested on: UACC-257 melanoma
UACC-62 melanoma = tested on: UACC-62 melanoma
UO-31 renal = tested on: UO-31 renal
RXF 393 renal = tested on: RXF 393 renal
SR leukemia = tested on: SR leukemia

## COc1cc2c(cc1OCCCCC(=O)Nc1cc3c4ccccc4ccc3c3ccccc13)N=C[C@@H]1CCCN1C2=O
786-0 renal
  GI50: 7.21 µM
  TGI: 18.8 µM
A498 renal
  GI50: 2.9 µM
  TGI: 9.38 µM
A549 NSCLC
  GI50: 27.1 µM
  TGI: 61.3 µM
ACHN renal
  GI50: 38.8 µM
  TGI: > 100 µM
CAKI-1 renal
  GI50: 3.44 µM
  TGI: 13.1 µM
CCRF-CEM leukemia
  GI50: 1.55 µM
  TGI: > 100 µM
COLO 205 colon
  GI50: 7.65 µM
  TGI: > 100 µM
DU-145 prostate
  GI50: 2.84 µM
  TGI: 14.1 µM
EKVX NSCLC
  GI50: 17.3 µM
  TGI: 64.2 µM
HCC-2998 colon
  GI50: 10.9 µM
  TGI: 33.5 µM
HCT-116 colon
  GI50: 25.1 µM
  TGI: 88.8 µM
HCT-15 colon
  GI50: 12.5 µM
  TGI: > 52.6 µM
HOP-62 NSCLC
  GI50: 10.1 µM
  TGI: 40.8 µM
HOP-92 NSCLC
  GI50: 1.45 µM
  TGI: > 20.9 µM
HS 578T breast
  GI50: 17.7 µM
  TGI: > 100 µM
HT29 colon
  GI50: 5.86 µM
  TGI: > 76.2 µM
IGROV1 ovarian
  GI50: 2.11 µM
  TGI: > 25.6 µM
K-562 leukemia
  GI50: 1.55 µM
  TGI: > 38.9 µM
KM12 colon
  GI50: 3.87 µM
  TGI: 18.5 µM
LOX IMVI melanoma
  GI50: 32.1 µM
  TGI: > 100 µM
M14 melanoma
  GI50: 8.1 µM
  TGI: 33 µM
MALME-3M melanoma
  GI50: 3.85 µM
  TGI: 16 µM
MCF7 breast
  GI50: 3.45 µM
  TGI: 34.1 µM
MDA-MB-231 breast
  GI50: 1.06 µM
  TGI: 17 µM
MDA-MB-435
  GI50: 5.44 µM
  TGI: > 92.9 µM
MOLT-4 leukemia
  GI50: 4.62 µM
  TGI: > 100 µM
NCI-H226 lung
  GI50: 0.665 µM
  TGI: 10.8 µM
NCI-H23 lung
  GI50: 20 µM
  TGI: 47.5 µM
NCI-H460 lung
  GI50: 5.33 µM
  TGI: 51.5 µM
NCI-H522 lung
  GI50: 4.25 µM
  TGI: > 100 µM
NCI/ADR-RES ovarian
  GI50: 32.2 µM
  TGI: > 85.7 µM
OVCAR-3 ovarian
  GI50: 3.02 µM
  TGI: 10.1 µM
OVCAR-4 ovarian
  GI50: 5.16 µM
  TGI: 22.8 µM
OVCAR-5 ovarian
  GI50: 11.5 µM
  TGI: 52.8 µM
OVCAR-8 ovarian
  GI50: 7.27 µM
  TGI: 20 µM
PC-3 prostate
  GI50: 5.4 µM
  TGI: > 65.9 µM
RPMI-8226 leukemia
  GI50: 1.11 µM
SF-268 CNS
  GI50: 2.67 µM
  TGI: 15 µM
SF-295 CNS
  GI50: 6.98 µM
  TGI: 63.1 µM
SF-539 CNS
  GI50: 2.22 µM
  TGI: 9.06 µM
SK-MEL-2 melanoma
  GI50: 8.4 µM
  TGI: 58.8 µM
SK-MEL-28 melanoma
  GI50: 3.41 µM
  TGI: 12.2 µM
SK-MEL-5 melanoma
  GI50: 2.93 µM
  TGI: 7.61 µM
SK-OV-3 ovarian
  GI50: 34.3 µM
  TGI: > 100 µM
SN12C renal
  GI50: 22.6 µM
  TGI: 89.3 µM
SNB-19 CNS
  GI50: 11.3 µM
  TGI: > 61.7 µM
SNB-75 CNS
  GI50: 19 µM
  TGI: > 52.9 µM
SW-620 colon
  GI50: 3.68 µM
  TGI: > 100 µM
T-47D breast
  GI50: 11.1 µM
  TGI: > 100 µM
TK-10 renal
  GI50: 2.33 µM
  TGI: 5.73 µM
U251 CNS
  GI50: 8.02 µM
  TGI: > 100 µM
UACC-257 melanoma
  GI50: 7.77 µM
  TGI: 18.4 µM
UACC-62 melanoma
  GI50: 0.658 µM
  TGI: 8.24 µM
UO-31 renal
  GI50: 1.22 µM

## Oc1c(N2CCOCC2)cc(-c2cc(N3CCOCC3)c(O)c3ccccc23)c2ccccc12
ACHN renal
  TGI: 11 µM
CAKI-1 renal
  TGI: 13.8 µM
EKVX NSCLC
  TGI: 41.6 µM
HCC-2998 colon
  TGI: 5.78 µM
HCT-15 colon
  TGI: 6.38 µM
HS 578T breast
  TGI: > 100 µM
HT29 colon
  TGI: 5.26 µM
IGROV1 ovarian
  TGI: 7.16 µM
K-562 leukemia
  TGI: 6.64 µM
KM12 colon
  TGI: 25.4 µM
LOX IMVI melanoma
  TGI: 7.09 µM
MDA-MB-231 breast
  TGI: > 100 µM
NCI-H226 lung
  TGI: 59.8 µM
NCI-H23 lung
  TGI: 6.13 µM
NCI-H460 lung
  TGI: 11.4 µM
NCI-H522 lung
  TGI: 4.89 µM
NCI/ADR-RES ovarian
  TGI: 15.6 µM
OVCAR-3 ovarian
  TGI: 15.6 µM
OVCAR-5 ovarian
  TGI: 7.25 µM
PC-3 prostate
  TGI: 14.6 µM
RXF 393 renal
  TGI: 6.03 µM
SF-268 CNS
  TGI: 17.8 µM
SK-MEL-2 melanoma
  TGI: 8.29 µM
SK-MEL-5 melanoma
  TGI: 3.35 µM
SK-OV-3 ovarian
  TGI: 51.9 µM
SNB-19 CNS
  TGI: 16.6 µM
SR leukemia
  TGI: 2.29 µM
SW-620 colon
  TGI: 6.34 µM
T-47D breast
  TGI: 62.1 µM
TK-10 renal
  TGI: 28.9 µM
U251 CNS
  TGI: 3.34 µM
UACC-257 melanoma
  TGI: 5.11 µM
UACC-62 melanoma
  TGI: 5.73 µM
UO-31 renal
  TGI: 4.66 µM

## CCOC(=O)CNC(=O)C(Cc1ccccc1)NC(=O)C(N)CC(=O)O (stereo not drawn) (H-Asp-Phe-Gly-OEt; configuration not given here)
CCRF-CEM leukemia
  GI50: 85.2 µg/mL
HS 578T breast
  GI50: 9.31 µg/mL
KM12 colon
  GI50: 0.194 µg/mL
MOLT-4 leukemia
  GI50: 23.7 µg/mL
UACC-62 melanoma
  GI50: 30.3 µg/mL
